Measurements published in ChEMBL document CHEMBL3352746, “Synthesis and anticancer activity of quinopimaric and maleopimaric acids’ derivatives” (Bioorg Med Chem, 2014).

Tests used:
P388 = assay: Antitumor activity against mouse P388 cells implanted in mouse assessed as increase in life span at 40 mg/kg, ip dosed daily for 5 days administered 24 hrs after tumor implantation; format: functional; details: route intraperitoneal
[1] = Antitumor activity against mouse Ehrlich carcinoma cells implanted in mouse assessed as increase in life span at 50 mg/kg, ip dosed daily for 5 days administered 48 hrs after tumor implantation; format: functional; details: route intraperitoneal
Mus musculus [2] = assay: Toxicity in mouse P388 cells implanted mouse assessed as mean ascites volume at 60 mg/kg, ip dosed daily for 5 days administered 24 hrs after tumor implantation; format: organism-based; parameters: dose 60 mg/kg, route intraperitoneal; details: in vivo
Mus musculus [3] = assay: Toxicity in mouse P388 cells implanted mouse assessed as mean spleen weight at 20 mg/kg, ip dosed daily for 5 days administered 24 hrs after tumor implantation; format: organism-based; parameters: dose 20 mg/kg, route intraperitoneal; details: in vivo
Mus musculus [4] = assay: Toxicity in mouse Ehrlich carcinoma cells implanted mouse assessed as mean spleen weight at 50 mg/kg, ip dosed daily for 5 days administered 48 hrs after tumor implantation; format: organism-based; parameters: dose 50 mg/kg, route intraperitoneal; details: in vivo
Mus musculus [5] = assay: Toxicity in mouse P388 cells implanted mouse assessed as mouse mortality at 20 mg/kg, ip dosed daily for 5 days administered 24 hrs after tumor implantation; format: organism-based; parameters: dose 20 mg/kg, route intraperitoneal; details: in vivo
[6] = Antitumor activity against mouse CA-755 cells implanted in mouse assessed as tumor growth inhibition at 40 mg/kg, ip dosed daily for 5 days measured 1 day after treatment termination; format: functional; details: CA-755, ip, route intraperitoneal, read-out: TGI
[7] = Antitumor activity against mouse AKATOL cells implanted in mouse assessed as tumor growth inhibition at 40 mg/kg, ip dosed daily for 5 days measured 1 day after treatment termination; format: functional; details: route intraperitoneal, read-out: TGI
[8] = Antitumor activity against mouse AKATOL cells implanted in mouse assessed as tumor growth inhibition at 40 mg/kg, ip dosed daily for 5 days measured 5 days after treatment termination; format: functional; details: 120 h, route intraperitoneal, read-out: TGI
[9] = tested on: Lewis lung carcinoma cell line; assay: Antitumor activity against mouse LLC cells implanted in mouse assessed as tumor growth inhibition at 40 mg/kg, ip dosed daily for 5 days measured 5 days after treatment termination; format: functional; details: 120 h, route intraperitoneal, read-out: TGI
[10] = Antitumor activity against mouse AKATOL cells implanted in mouse assessed as tumor growth inhibition at 40 mg/kg, ip dosed daily for 5 days measured 8 to 9 days after treatment termination; format: functional; details: route intraperitoneal, read-out: TGI
[11] = tested on: Lewis lung carcinoma cell line; assay: Antitumor activity against mouse LLC cells implanted in mouse assessed as tumor growth inhibition at 40 mg/kg, ip dosed daily for 5 days measured 8 to 9 days after treatment termination; format: functional; details: route intraperitoneal, read-out: TGI
[12] = Antitumor activity against mouse CA-755 cells implanted in mouse assessed as tumor growth inhibition at 40 mg/kg, ip dosed daily for 5 days measured 12 days after treatment termination; format: functional; details: CA-755, ip, route intraperitoneal, read-out: TGI
[13] = Antitumor activity against mouse AKATOL cells implanted in mouse assessed as tumor growth inhibition at 40 mg/kg, ip dosed daily for 5 days measured 12 days after treatment termination; format: functional; details: route intraperitoneal, read-out: TGI
[14] = Antitumor activity against mouse CA-755 cells implanted in mouse assessed as tumor growth inhibition at 40 mg/kg, ip dosed daily for 5 days measured 16 days after treatment termination; format: functional; details: CA-755, ip, route intraperitoneal, read-out: TGI
[15] = Antitumor activity against mouse AKATOL cells implanted in mouse assessed as tumor growth inhibition at 40 mg/kg, ip dosed daily for 5 days measured 19 days after treatment termination; format: functional; details: route intraperitoneal, read-out: TGI
K562 = assay: Growth inhibition of human K562 cells; format: functional
A549 = assay: Growth inhibition of human A549/ATCC cells; format: functional
[16] = Growth inhibition of human EKVX cells; format: functional
NCI-H23 = assay: Growth inhibition of human NCI-H23 cells; format: functional
NCI-H522 = assay: Growth inhibition of human NCI-H522 cells; format: functional
[17] = Growth inhibition of human HCT116 cells; format: functional
[18] = Growth inhibition of human HCT15 cells; format: functional
HT-29 = assay: Growth inhibition of human HT-29 cells; format: functional
SW-620 = assay: Growth inhibition of human SW620 cells; format: functional
SF-268 = assay: Growth inhibition of human SF268 cells; format: functional
[19] = read-out: pLC50 (the source's name) (converted)

COC(=O)[C@]1(C)CCC[C@]2(C)[C@H]3C[C@H]4C(C(C)C)=C[C@]3(CC[C@H]21)[C@@H]1/C(=N/O)CC/C(=N\O)[C@@H]14
ILS at 40 mg/kg (P388): -7% | ILS at 50 mg/kg [1]: -3% | Activity (Mus musculus [2]): 0.6 mL | Activity (Mus musculus [3]): 101 mg | Activity (Mus musculus [4]): 104 mg | Activity (Mus musculus [5]): Non-toxic | inhibition in vivo at 40 mg/kg [6]: 83% | inhibition in vivo at 40 mg/kg [7]: 57% | inhibition in vivo at 40 mg/kg [8]: 60% | inhibition in vivo at 40 mg/kg [9]: 33% | inhibition in vivo at 40 mg/kg [10]: 41% | inhibition in vivo at 40 mg/kg [11]: 20% | inhibition in vivo at 40 mg/kg [12]: 35% | inhibition in vivo at 40 mg/kg [13]: 34% | inhibition in vivo at 40 mg/kg [14]: 32% | inhibition in vivo at 40 mg/kg [15]: 44% | GI50 (K562; K562): 3.24 µM | CC50 (K562; K562, read-out: pLC50 (converted)): > 100 µM | TGI (K562; K562, read-out: pTGI (converted)): 11.7 µM | GI50 (A549; A549): 3.09 µM | CC50 (A549; A549, read-out: pLC50 (converted)): > 100 µM | TGI (A549; A549, read-out: pTGI (converted)): 10.5 µM | GI50 [16]: 3.72 µM | CC50 [16, 19]: 79.4 µM | TGI ([16]; read-out: pTGI (converted)): 18.2 µM | GI50 (NCI-H23): 3.72 µM | CC50 (NCI-H23; [19]): 93.3 µM | TGI (NCI-H23; read-out: pTGI (converted)): 15.8 µM | GI50 (NCI-H522): 3.8 µM | CC50 (NCI-H522; [19]): 93.3 µM | TGI (NCI-H522; read-out: pTGI (converted)): 17.8 µM | GI50 ([17]; HCT-116): 2.75 µM | CC50 ([17]; HCT-116, read-out: pLC50 (the source's name) (converted)): 47.9 µM | TGI ([17]; HCT-116, read-out: pTGI (converted)): 8.51 µM | GI50 ([18]; HCT-15): 3.39 µM | CC50 ([18]; HCT-15, read-out: pLC50 (the source's name) (converted)): 39.8 µM | TGI ([18]; HCT-15, read-out: pTGI (converted)): 12.9 µM | GI50 (HT-29): 2.69 µM | CC50 (HT-29; [19]): 52.5 µM | TGI (HT-29; read-out: pTGI (converted)): 7.94 µM | GI50 (SW-620): 3.47 µM | CC50 (SW-620; [19]): 49 µM | TGI (SW-620; read-out: pTGI (converted)): 14.5 µM | GI50 (SF-268): 4.37 µM | CC50 (SF-268; [19]): 55 µM
